Test results: paper PMC6736736 (Molecular microbiology, 2019)

Assays:
[1] = biological target: T1, ZagA (YciC) (Bacillus subtilis, UniProt P94400); test: inhibition of ZTP hydrolysis, malachite green assay; format: biochemical; conditions: substrate ZTP
[2] = biological target: T1, ZagA (YciC); test: inhibition of GTP hydrolysis, malachite green assay; format: biochemical; conditions: substrate GTP

T1 sequence (P94400 whole entry): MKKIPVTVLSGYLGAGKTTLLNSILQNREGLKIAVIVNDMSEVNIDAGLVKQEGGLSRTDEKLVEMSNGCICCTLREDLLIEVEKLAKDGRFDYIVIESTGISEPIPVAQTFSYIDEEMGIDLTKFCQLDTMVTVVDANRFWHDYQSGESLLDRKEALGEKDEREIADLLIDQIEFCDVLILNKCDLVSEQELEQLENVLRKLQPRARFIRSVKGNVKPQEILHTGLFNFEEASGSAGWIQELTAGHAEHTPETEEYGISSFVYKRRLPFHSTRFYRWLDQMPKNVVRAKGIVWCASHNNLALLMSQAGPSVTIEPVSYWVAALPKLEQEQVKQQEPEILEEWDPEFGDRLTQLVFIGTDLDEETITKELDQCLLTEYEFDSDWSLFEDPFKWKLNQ

| SMILES | inhibition of ZTPase activity [1] | inhibition of GTPase activity [2] |
| --- | --- | --- |
| Nc1nc2c(ncn2[C@@H]2O[C@H](COP(=O)(O)OP(=O)(O)NP(=O)(O)O)[C@@H](O)[C@H]2O)c(=O)[nH]1 [GDP-NP] | GDP-NP, a non-hydrolyzable analog of GTP, inhibited ZTP hydrolysis |  |
| NC(=O)c1ncn([C@@H]2O[C@H](COP(=O)(O)O)[C@@H](O)[C@H]2O)c1N [ZMP] |  | Conversely, ZMP inhibited GTP hydrolysis (Fig 4D) |
